According to patent US20250186410A1, “DUAL INHIBITORS OF TRYPTOPHAN DIOXYGENASES (IDO1 AND TDO) AND THEIR USE IN THERAPY” (ANTIDO THERAPEUTICS INTERNATIONAL SÀRL, priority 2022, published 2025):

Experiments:
[1] = tested on: immune cells in LLC-CR tumors; experiment: Flow cytometry immune cell analysis, LLC-CR tumors; assay type: in vivo, mouse; details: AT-0174 170 mg/kg, epacadostat 200 mg/kg P.O. daily
Protocol: (§1) LLC or LLC-CR (1×10^6) cells were subcutaneously injected into the flank of C57B6/J male and female mice (5 mice per group, age 6-8 weeks, Jackson laboratory) and allowed to grow for 3 days (average tumor size=50 mm^3) before being treated with the selective IDO1 inhibitor epacadostat at 200 mg/kg daily or with AT-0174 at 170 mg/kg daily (a dual inhibitor of IDO1 and TDO enzymes). Both compounds were administered via oral gavage (P.O.) and diluted with 95% water+5% methylcellulose (0.5%) and stored at −20° C. Compound was prepared every 5 days. Methyl cellulose (95+5%) was used as control (“Veh”). Tumor growth was evaluated every 2 days by measuring tumor volume with calipers according to the following formula: tumor volume=width^2×length×0.5. At the end of the study, mice were sacrificed and the blood, tumor, and lymph nodes were collected and processed for KYN and tryptophan (TRP) measurement and immune cell assessment respectively.
(§2) Tumors or lymph nodes were collected from mice and homogenized using syringe plungers. Mesh filters (40 μM) were placed on 15 mL or 50 mL tubes and the tissue suspensions were filtered. Cell filtrates were spun down at 1000 g. Red blood cell lysis buffer (1% […]) was added into the cell pellets and resuspended. Cell pellets were washed using PBS and isolated. Tumors were isolated using EasySep™ Mouse TIL (CD45) Positive Selection Kit (Stemcell Technologies). To detect regulatory T cells (T-regs) or natural killer cells (NKs), EasySep™ Mouse CD25 Regulatory T Cell Positive Selection Kit and EasySep™ Mouse CD49b Positive Selection Kit were used, respectively. Isolated cells were stained according to manufacturer's instructions. Cells were also fixed with 2% paraformaldehyde and analysis was done using the CytoFLEX Flow Cytometer (Beckman). All flow antibodies were obtained from Biolegend.

[2] = tested on: immune cells in LLC tumors; experiment: Flow cytometry immune cell analysis, LLC tumors; assay type: in vivo, mouse; details: AT-0174 170 mg/kg, epacadostat 200 mg/kg P.O. daily
Protocol: as §1, §2

[3] = tested on: cisplatin-resistant LLC tumors; experiment: Survival of mice with cisplatin-resistant LLC tumors; assay type: in vivo, mouse; details: for First Death / Maximal Survival / Median Survival Time: LLC-CR, C57B6/J mice, epacadostat 200 mg/kg, AT-0174 170 mg/kg P.O., anti-PD-1 10 mg/kg i.p. every 3 days
Protocol: To investigate the synergy of immune response on tumors between the dual IDO1/TDO inhibitor AT-0174 and an immune checkpoint inhibitor, the compound was tested in mice with cisplatin-resistant lung cancer tumors with and without with anti-PD1 antibody co-treatment.
LLC-CR (1×10^6) cells were subcutaneously injected into the flank of C57B6/J mice (6 mice per group, age 8 weeks) and allowed to grow for 3 days (average tumor size=50 mm^3) before being treated with IDO1 inhibitor epacadostat at 200 mg/kg daily (a supra-maximal dose) or with AT-0174 at 170 mg/kg. Both compounds were administered via oral gavage (P.O.) in 95% water+5% methylcellulose (0.5%). Anti-mouse PD-1 MAb clone RMPi-14 was used as checkpoint inhibitor and administered via intraperitoneal injection (i.p.) at a dose of 10 mg/kg every 3 days.

[4] = tested on: kynurenine (KYN) and tryptophan (TRP) levels in mouse serum; experiment: KYN and TRP measurements, LLC-bearing mice; assay type: in vivo; details: AT-0174 170 mg/kg, epacadostat 200 mg/kg P.O. daily
Protocol: as §1
(§3) Blood samples were collected via cardiac puncture from mice at the time of sacrifice and the Biochrom 30 amino acid analyzer (using ion exchange chromatography) was used to analyze free amino acids in samples. Briefly, 200 μL of serum extract and equal volume of 30% v/v deproteinization agent (sulfosalicylic acid) were mixed and vortexed for 10 s. Samples were then incubated at 55° C. for 20 min, spin down at 2500 g for 20 min at 4° C. Supernatant were collected, filtered through a 0.22 μm filter, and injected into the Biochrom 30. Values were reported compared to normal ranges in controls. Samples used in ion exchange chromatography are separated in an analytical fashion with an ion exchange column and buffers of increasing pH and ionic strength. After post-column derivatization with Ninhydrin, and colorimetric intensity recordings at 570 nm and 440 nm, the amino acids separated by chromatography were detected. Amino acid concentration was calculated by comparing the peak area of a particular amino acid to the peak area of an internal standard-AEC of known concentration, and then multiplying by its specific response factor from calibration.

[5] = tested on: LLC (cisplatin-sensitive cell tumours); experiment: Tumor growth in syngeneic mouse model, LLC allografts; assay type: in vivo; details: epacadostat 200 mg/kg P.O. daily
Protocol: as §1
In this example, LLC-CR from the Lewis lung mouse cell line (LLC; see methods) was used to determine, in vivo, the effect of IDO1 or dual IDO1/TDO inhibition on tumor growth. Mice were inoculated with either LLC or LLC-CR and treated with epacadostat (200 mg/kg P.O. 1/day) or AT-0174 (170 mg/kg P.O. 1/day).

[6] = tested on: kynurenine (KYN) and tryptophan (TRP) levels in mouse serum; experiment: KYN and TRP measurements, LLC-CR-bearing mice; assay type: in vivo; details: AT-0174 170 mg/kg, epacadostat 200 mg/kg P.O. daily
Protocol: as §1, §3

Structure (SMILES)	CD3^+ CD8^+ T-Effector [1]	CD3^+ CD49^+ NKG2D^+ NK Cells [1]	CD4^+ CD25^+ FoxP3^+ T-regs [1]	CD3^+ CD8^+ T-Effector [2]	CD3^+ CD49^+ NKG2D^+ NK Cells [2]	CD4^+ CD25^+ FoxP3^+ T-regs [2]	First Death [3]	Maximal Survival [3]	Median Survival Time [3]	KYN/TRP Ratio [4]	Kynurenine [4]	Tyrptophan [4]	tumor volume, Mean ([5]; day 1, AT-0174 170 mg/kg)	tumor volume, Mean ([5]; day 2, AT-0174 170 mg/kg)	tumor volume, Mean ([5]; day 3, AT-0174 170 mg/kg)	tumor volume, Mean ([5]; day 4, AT-0174 170 mg/kg)	tumor volume, Mean ([5]; day 5, AT-0174 170 mg/kg)	tumor volume, Mean ([5]; day 6, AT-0174 170 mg/kg)	tumor volume, Mean ([5]; day 7, AT-0174 170 mg/kg)	tumor volume, Mean ([5]; day 8, AT-0174 170 mg/kg)	other results
Nc1noc2nc(Cl)c(F)cc12 [Compound 66, 6-Chloro-5-fluoroisoxazolo[5,4-b]pyridin-3-amine]	8.13 ± 0.94	7.44 ± 0.62	5.75 ± 1.53	5.38 ± 0.79	3.58 ± 0.70	10.05 ± 0.79	36 days	43 days	36 days	1.11 ± 0.17	64.2 ± 9.3	59.2 ± 4.4	58.0 mm^3	79.0 mm^3	110.0 mm^3	125.0 mm^3	115.2 mm^3	124.0 mm^3	135.0 mm^3	140.6 mm^3	effect on survival ([3]; LLC-CR mice, given alone): increased survival to a greater extent than the selective agent; tumor volume, Mean ([5]; day 9, AT-0174 170 mg/kg): 171.0 mm^3; tumor volume, Mean ([5]; day 10, AT-0174 170 mg/kg): 230.0 mm^3; tumor volume, Mean ([5]; day 11, AT-0174 170 mg/kg): 340.0 mm^3; tumor volume, Mean ([5]; day 12, AT-0174 170 mg/kg): 430.0 mm^3; tumor volume, Mean ([5]; day 13, AT-0174 170 mg/kg): 571.8 mm^3; tumor volume, Mean ([5]; day 14, AT-0174 170 mg/kg): 645.0 mm^3; tumor volume, Mean ([5]; day 15, AT-0174 170 mg/kg): 675.0 mm^3; KYN/TRP Ratio [6]: 1.18 ± 0.31; Kynurenine [6]: 50 ± 9.7; Tyrptophan [6]: 85.8 ± 8.3
NS(=O)(=O)NCCNc1nonc1C(=NO)Nc1ccc(F)c(Br)c1 [Epacadostat, epacadostat, reference compound]	4.06 ± 0.63	2.38 ± 0.42	12.60 ± 0.94	5.16 ± 0.65	2.66 ± 0.57	13.27 ± 0.83	24 days	35 days	25 days	1.35 ± 0.23	74.6 ± 7.7	58.6 ± 5.6	47.0 mm^3	108.0 mm^3	110.0 mm^3	124.0 mm^3	137.0 mm^3	151.0 mm^3	208.0 mm^3	290.0 mm^3	tumor volume, Mean ([5]; day 9, AT-0174 170 mg/kg): 325.0 mm^3; tumor volume, Mean ([5]; day 10, AT-0174 170 mg/kg): 409.0 mm^3; tumor volume, Mean ([5]; day 11, AT-0174 170 mg/kg): 563.0 mm^3; tumor volume, Mean ([5]; day 12, AT-0174 170 mg/kg): 625.0 mm^3; tumor volume, Mean ([5]; day 13, AT-0174 170 mg/kg): 725.0 mm^3; tumor volume, Mean ([5]; day 14, AT-0174 170 mg/kg): 785.0 mm^3; tumor volume, Mean ([5]; day 15, AT-0174 170 mg/kg): 910.0 mm^3; KYN/TRP Ratio [6]: 2.01 ± 0.32; Kynurenine [6]: 81.8 ± 11.9; Tyrptophan [6]: 43 ± 5.8
